Measured values from the supplement of paper PMC8497498.

What was measured:
[1] = system: Plasmodium cynomolgi Berok K4 asexual blood stage; assay: EC50 asexual blood stage growth
Experimental: (§1)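 The Reference Compound Library was tested by 10-point 3-fold dose response against P. cynomolgi Berok K4 asexual blood stages (SYBR proliferation assay, mefloquine background control). Culture medium contained 0.5% AlbuMAX or 20% M. fascicularis serum. P. falciparum 3D7 was tested in a 72-h SYBR Green assay with 0.5% AlbuMAX. Values are geometric mean EC50 over independent experiments; 10 uM is the top dose.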

[2] = system: Plasmodium falciparum 3D7 asexual blood stage; assay: EC50 asexual blood stage growth; settings: serum: 0.5% AlbuMAX
Experimental: as §1

[3] = serum: 20% M. fascicularis serum

SMILES	EC50 asexual blood stage growth ([1]; serum: 0.5% AlbuMAX)	EC50 asexual blood stage growth [1, 3]	EC50 asexual blood stage growth [2]
CC1CCC2C(C)C(=O)OC3OC4(C)CCC1C32OO4 (configuration not stated) [Artemisinin]	7.3 nM	9.4 nM	94.8 nM
CC1CCC2C(C)C(N3CCS(=O)(=O)CC3)OC3OC4(C)CCC1C32OO4 (configuration not stated) [Artemisone]	1 nM	0.6 nM	5 nM
CC1CCC2C(C)C(O)OC3OC4(C)CCC1C32OO4 (configuration not stated) [Artenimol]	0.6 nM	0.5 nM	6.5 nM
CC(C)(N)CNC(=O)CC1CCC2(CC1)OOC1(O2)C2CC3CC(C2)CC1C3 (configuration not stated) [Arterolane]	1.4 nM	1 nM	7.8 nM
CC1CCC2C(C)C(OC(=O)CCC(=O)O)OC3OC4(C)CCC1C32OO4 (configuration not stated) [Artesunate]	6.2 nM	3 nM	41.3 nM
O=C1C(O)=C([C@H]2CC[C@H](c3ccc(Cl)cc3)CC2)C(=O)c2ccccc21 [Atovaquone]	1 nM	1.7 nM	0.9 nM
CCN(CC)CCCC(C)Nc1ccnc2cc(Cl)ccc12 (configuration not stated) [Chloroquine]	183 nM	32.8 nM	82.2 nM
CC1Cc2c([nH]c3cc(Cl)c(F)cc23)C2(N1)C(=O)Nc1ccc(Cl)cc12 (configuration not stated) [Cipargamin]	3.3 nM	15.4 nM	1.4 nM
CC1CCCC(CC2Cc3cc(O)cc(O)c3C(=O)O2)O1 (configuration not stated) [Cladosporin]	124 nM	1430 nM	75.8 nM
CCC[C@@H]1C[C@@H](C(=O)N[C@@H]([C@H]2O[C@H](SC)[C@H](O)[C@@H](O)[C@H]2O)[C@H](C)Cl)N(C)C1 [Clindamycin]	> 10000 nM	9210 nM	> 10000 nM
CC1CC(C)C(=O)C(C(O)CC2CC(=O)NC(=O)C2)C1 (configuration not stated) [Cyclohexamide]	35.2 nM	40.1 nM	282 nM
Cc1cc(Nc2ccc(C(F)(F)F)nc2)n2nc(C(C)(F)F)nc2n1 [DSM421]	60.5 nM	59.5 nM	35.1 nM
Nc1ccc(S(=O)(=O)c2ccc(N)cc2)cc1 [Dapsone]	> 10000 nM	> 10000 nM	> 10000 nM
CC(=O)N(O)CCCCCNC(=O)CCC(=O)N(O)CCCCCNC(=O)CCC(=O)N(O)CCCCCN [Deferoxamine]	> 10000 nM	> 10000 nM	> 10000 nM
CC12CCC3C(CC=C4CC(OS(=O)(=O)O)CCC43C)C1CCC2=O (configuration not stated) [Dehydroepiandrosterone sulphate]	> 10000 nM	> 10000 nM	> 10000 nM
CC1CCC2C(C)C(O)OC3OC4(C)CCC1C32O4 (configuration not stated) [Deoxydihydroartemisinin]	> 10000 nM	> 10000 nM	> 10000 nM
C[C@H]1c2cccc(O)c2C(=O)C2=C(O)[C@]3(O)C(=O)C(C(N)=O)=C(O)[C@@H](N(C)C)C3[C@@H](O)C21 (some centres not stated) [Doxycycline]	9360 nM	8350 nM	9930 nM
CN(C)CC1=C(CNc2ccnc3cc(Cl)ccc23)C=[C-]C1.[C-]1=CC=CC1.[Fe+2] [Ferroquine]	43.3 nM	36.2 nM	11.5 nM
O=CN(O)CCCP(=O)(O)O [Fosmidomycin]	> 10000 nM	6690 nM	> 10000 nM
N=C(N)c1ccc(-c2ccc(-c3ccc(C(=N)N)cc3)o2)cc1 [Furamidine]	4670 nM	864 nM	540 nM
CCCCN(CCCC)CCC(O)c1cc2c(Cl)cc(Cl)cc2c2cc(C(F)(F)F)ccc12 (configuration not stated) [Halofantrine]	0.5 nM	0.5 nM	3.7 nM
CCN(CCO)CCCC(C)Nc1ccnc2cc(Cl)ccc12 (configuration not stated) [Hydroxychloroquine]	3370 nM	209 nM	427 nM

SMILES	EC50 asexual blood stage growth ([1]; serum: 0.5% AlbuMAX)	EC50 asexual blood stage growth [1, 3]	EC50 asexual blood stage growth [2]
CC1(C)c2nc(-c3ccc(F)cc3)c(Nc3ccc(F)cc3)n2CCN1C(=O)CN [KAF-156]	3.6 nM	36.6 nM	24.4 nM
CCCCN(CCCC)CC(O)c1cc(Cl)cc2c1-c1ccc(Cl)cc1C2=Cc1ccc(Cl)cc1 (configuration not stated) [Lumefantrine]	23.3 nM	105 nM	30.5 nM
CC(C)(C)c1cc(O)c(CN)c(C(C)(C)C)c1.Cl [MK-4815]	49.4 nM	93.8 nM	574 nM
CS(=O)(=O)c1ccc(-c2cnc(N)c(-c3ccc(C(F)(F)F)nc3)c2)cc1 [MMV048]	59.8 nM	49 nM	127 nM
CN(Cc1cnc2nc(N)nc(N)c2n1)c1ccc(C(=O)N[C@@H](CCC(=O)O)C(=O)O)cc1 [Methotrexate]	232 nM	168 nM	138 nM
CN(C)c1ccc2nc3ccc(=[N+](C)C)cc-3sc2c1 [Methylene blue]	5.4 nM	6 nM	17.8 nM
CC(=O)N[C@@H](C(=O)O)C(C)(C)S [N-acetyl-D-penicillamine]	7560 nM	> 10000 nM	> 10000 nM
CC(C)(C)NCc1cc(Nc2ccnc3cc(Cl)ccc23)c2c(c1O)CCCC2 [Naphthoquine]	23.2 nM	68.3 nM	8.7 nM
CONC(=N)c1ccc(-c2ccc(-c3ccc(C(=N)NOC)cc3)o2)cc1 [Pafuramidine]	> 10000 nM	> 10000 nM	> 10000 nM
N=C(N)c1ccc(OCCCCCOc2ccc(C(=N)N)cc2)cc1 [Pentamidine]	212 nM	389 nM	139 nM
CN(C)Cc1ccccc1CNc1ccnc2cc(Cl)ccc12 [Phenylequine]	36.6 nM	40.7 nM	7.4 nM
Clc1ccc2c(N3CCN(CCCN4CCN(c5ccnc6cc(Cl)ccc56)CC4)CC3)ccnc2c1 [Piperaquine]	68.2 nM	35.3 nM	299 nM
COc1cc(NC(C)CCCN)c2ncccc2c1 (configuration not stated) [Primaquine]	3100 nM	9000 nM	5750 nM
CC(C)N=C(N)N=C(N)Nc1ccc(Cl)cc1 [Proguanil]	> 10000 nM	> 10000 nM	2740 nM
CCc1nc(N)nc(N)c1-c1ccc(Cl)cc1 [Pyrimethamine]	21.8 nM	7.2 nM	36.6 nM
C=CC1CN2CCC1CC2C(O)c1ccnc2ccc(OC)cc12 (configuration not stated) [Quinidine]	30.8 nM	18.5 nM	73.9 nM
C=C[C@H]1C[N@@]2CC[C@H]1C[C@H]2[C@H](O)c1ccnc2ccc(OC)cc12 [Quinine]	127 nM	174 nM	184 nM
Cc1cc2nc3c(=O)[nH]c(=O)nc-3n(CC(O)C(O)C(O)CO)c2cc1C (configuration not stated) [Riboflavin]	> 10000 nM	> 10000 nM	> 10000 nM
CCN(CC)CCCCCCNc1cc(OC)cc2c(C)ccnc12 [Sitamaquine]	773 nM	1050 nM	730 nM
Nc1ccc(S(=O)(=O)Nc2ncccn2)cc1 [Sulfadiazine]	> 10000 nM	8320 nM	> 10000 nM
COc1cc(C)c2c(Oc3cccc(C(F)(F)F)c3)c(OC)cc(NC(C)CCCN)c2n1 (configuration not stated) [Tafenoquine]	5290 nM	> 10000 nM	5940 nM
COc1cc(Cc2cnc(N)nc2N)cc(OC)c1OC [Trimethoprim]	794 nM	496 nM	5280 nM
